Patent US8889874B2, “Imidazolone-chalcone derivatives as potential anticancer agent and process for the preparation thereof” (Council of Scientific and Industrial Research, priority 2010, dated 2014)
Where two headings read alike, the source gives them in different places.

Columns and labels:
Format in all cases: cell-based, human
[1] = system: Ovarian cancer cell lines; test: NCI anticancer screen, SRB assay, panel summary; details: Homo sapiens
Experimental: (§1) Some of biological activity studies were carried out at the National Cancer Institute (NCI), Maryland, USA.
(§2) The compounds were evaluated for anticancer activity against fifty three human cancer cells derived from nine cancer types (leukemia cell line, non-small-cell lung cell line, colon cell line, CNS cell line, melanoma cell line, ovarian cell line, prostate cell line, and breast cancer cell line) as shown in Table 1. For each compound, dose response curves for each cell line were measured at a minimum of five concentrations at 10 fold dilutions. A protocol of 48 h continuous drug exposure was used and a sulforhodamine B (SRB) protein assay was used to estimate cell viability or growth.

[2] = system: Renal cancer cell lines; test: NCI anticancer screen, SRB assay, panel summary; details: Homo sapiens
Experimental: as §1, §2

[3] = system: Breast cancer cell lines; test: NCI anticancer screen, SRB assay, panel summary; details: Homo sapiens
Experimental: as §1, §2

[4] = system: Leukemia cancer cell lines; test: NCI anticancer screen, SRB assay, panel summary; details: Homo sapiens
Experimental: as §1, §2

[5] = system: Colon cancer cell lines; test: NCI anticancer screen, SRB assay, panel summary; details: for GI50: Homo sapiens
Experimental: as §1, §2

[6] = system: CNS cancer cell lines; test: NCI anticancer screen, SRB assay, panel summary; details: for GI50: Homo sapiens
Experimental: as §1, §2

[7] = system: Melanoma cancer cell lines; test: NCI anticancer screen, SRB assay, panel summary; details: for GI50: Homo sapiens
Experimental: as §1, §2

[8] = system: Non-small cell lung cancer cell lines; test: NCI anticancer screen, SRB assay, panel summary; details: Homo sapiens
Experimental: as §1, §2

[9] = system: NCI/ADR-RES (ovarian); test: NCI anticancer screen, SRB assay, 48 h; details: Homo sapiens, NCI/ADR-RES
How it was run: (§3)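 Sulforhodamine B protein assay read cell growth after 48 h of continuous compound exposure. Dose-response curves per cell line used at least five 10-fold-diluted concentrations, within a panel of fifty-three human lines from nine tumour types.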

[10] = system: SK-MEL-5 (melanoma); test: NCI anticancer screen, SRB assay, 48 h; details: Homo sapiens
How it was run: as §3

[11] = system: SNB-19 (CNS); test: NCI anticancer screen, SRB assay, 48 h; details: Homo sapiens
How it was run: as §3

[12] = system: TD-47D (breast); test: NCI anticancer screen, SRB assay, 48 h; details: Homo sapiens
How it was run: as §3

[13] = system: HCC-2998 (colon); test: NCI anticancer screen, SRB assay, 48 h; details: Homo sapiens
How it was run: as §3

[14] = system: MDA-MB-435 (melanoma); test: NCI anticancer screen, SRB assay, 48 h; details: Homo sapiens
How it was run: as §3

[15] = system: CAKI-1 (renal); test: NCI anticancer screen, SRB assay, 48 h; details: Homo sapiens
How it was run: as §3

[16] = system: HCT-116 (colon); test: NCI anticancer screen, SRB assay, 48 h; details: Homo sapiens
How it was run: as §3

[17] = system: SN12C (renal); test: NCI anticancer screen, SRB assay, 48 h; details: Homo sapiens, SN12C
How it was run: as §3

[18] = system: TK-10 (renal); test: NCI anticancer screen, SRB assay, 48 h; details: Homo sapiens
How it was run: as §3

[19] = system: U251 (CNS); test: NCI anticancer screen, SRB assay, 48 h; details: Homo sapiens
How it was run: as §3

[20] = system: NCI-H226 (non-small cell lung); test: NCI anticancer screen, SRB assay, 48 h; details: Homo sapiens
How it was run: as §3

[21] = system: RPMI-8226 (leukemia cell line); test: NCI anticancer screen, SRB assay, 48 h; details: Homo sapiens
How it was run: as §3

[22] = system: HCT-15 (colon); test: NCI anticancer screen, SRB assay, 48 h; details: Homo sapiens
How it was run: as §3

[23] = system: A549/ATCC (non-small cell lung); test: NCI anticancer screen, SRB assay, 48 h; details: Homo sapiens
How it was run: as §3

[24] = system: UACC-257 (melanoma); test: NCI anticancer screen, SRB assay, 48 h; details: Homo sapiens
How it was run: as §3

[25] = system: OVCAR-4 (ovarian); test: NCI anticancer screen, SRB assay, 48 h; details: Homo sapiens
How it was run: as §3

[26] = read-out: pGI50 (-log of molar concentration causing 50% inhibition of net cell growth) (converted)
[27] = 48 h exposure, SRB, read-out: GI50

O=C(/C=C/c1cccc(O)c1)c1cccc(-n2cc(-c3ccc(Cl)cc3)[nH]c2=O)c1 [4f, 4-(4-chlorophenyl)-1-3-[(E)-3-(3-hydroxyphenyl)-2-propenoyl]phenyl-2,3-dihydro-1H-2-imidazolone]
GI50 ([1]; Ovarian panel, log of concentration in mol/L causing 50% inhibition of net cell growth, read-out: mean graph midpoint (MG_MID) of Log10 GI50 (converted)): 2.04 µM
LC50 ([1]; Ovarian panel, log of concentration leading to 50% net cell death, read-out: mean graph midpoint (MG_MID) of Log10 LC50 (converted)): 46.8 µM
GI50 ([1]; six ovarian cancer cell lines, exposure at least 48 hrs, read-out: GI50, range over the panel): 0.99 to 4.21 µM
GI50 ([2]; Renal panel, log of concentration in mol/L causing 50% inhibition of net cell growth, read-out: mean graph midpoint (MG_MID) of Log10 GI50 (converted)): 1.78 µM
LC50 ([2]; Renal panel, log of concentration leading to 50% net cell death, read-out: mean graph midpoint (MG_MID) of Log10 LC50 (converted)): 27.5 µM
GI50 ([2]; eight renal cancer cell lines, exposure at least 48 hrs, read-out: GI50, range over the panel): 0.55 to 3.71 µM
GI50 ([3]; Breast panel, log of concentration in mol/L causing 50% inhibition of net cell growth, read-out: mean graph midpoint (MG_MID) of Log10 GI50 (converted)): 2.19 µM
LC50 ([3]; Breast panel, log of concentration leading to 50% net cell death, read-out: mean graph midpoint (MG_MID) of Log10 LC50 (converted)): 63.1 µM
GI50 ([3]; five breast cancer cell lines, exposure at least 48 hrs, read-out: GI50, range over the panel): 1.29 to 4 µM
GI50 ([4]; Leukemia panel, log of concentration in mol/L causing 50% inhibition of net cell growth, read-out: mean graph midpoint (MG_MID) of Log10 GI50 (converted)): 0.794 µM
LC50 ([4]; Leukemia panel, log of concentration leading to 50% net cell death, read-out: mean graph midpoint (MG_MID) of Log10 LC50 (converted)): 87.1 µM
GI50 ([4]; two leukemia cancer cell lines (RPMI-8226 and K-562), exposure at least 48 hrs, read-out: GI50, range over the panel): 0.4 to 1.55 µM
mean graph midpoint (MG_MID) of Log10 LC50 ([5]; Colon panel, log of concentration leading to 50% net cell death): 4.68
GI50 ([5]; Colon panel, log of concentration in mol/L causing 50% inhibition of net cell growth, read-out: mean graph midpoint (MG_MID) of Log10 GI50 (converted)): 2.34 µM
GI50 ([5]; seven colon cancer cell lines, exposure at least 48 hrs, read-out: GI50, range over the panel): 1.23 to 13.7 µM
mean graph midpoint (MG_MID) of Log10 LC50 ([6]; CNS panel, log of concentration leading to 50% net cell death): 4.87
GI50 ([6]; CNS panel, log of concentration in mol/L causing 50% inhibition of net cell growth, read-out: mean graph midpoint (MG_MID) of Log10 GI50 (converted)): 1.45 µM
GI50 ([6]; six CNS cancer cell lines, exposure at least 48 hrs, read-out: GI50, range over the panel): 0.58 to 1.92 µM
GI50 ([7]; Melanoma panel, log of concentration in mol/L causing 50% inhibition of net cell growth, read-out: mean graph midpoint (MG_MID) of Log10 GI50 (converted)): 2.19 µM
GI50 ([7]; nine melanoma cancer cell lines, exposure at least 48 hrs, read-out: GI50, range over the panel): 1.53 to 4.07 µM
mean graph midpoint (MG_MID) of Log10 LC50 ([7]; Melanoma panel, log of concentration leading to 50% net cell death): 4.55
GI50 ([8]; Non-small cell lung panel, log of concentration in mol/L causing 50% inhibition of net cell growth, read-out: mean graph midpoint (MG_MID) of Log10 GI50 (converted)): 2.34 µM
LC50 ([8]; Non-small cell lung panel, log of concentration leading to 50% net cell death, read-out: mean graph midpoint (MG_MID) of Log10 LC50 (converted)): 57.5 µM
GI50 ([8]; nine non-small cell lung cancer cell lines, exposure at least 48 hrs, read-out: GI50, range over the panel): 1.6 to 3.55 µM
GI50 ([9]; NCl/ADR-RES, 48 h exposure, SRB, read-out: GI50): 2.2 µM
GI50 [9, 26]: 2.19 µM
GI50 [10, 27]: 1.53 µM
GI50 [10, 26]: 1.51 µM
GI50 [11, 27]: 1.92 µM
GI50 [11, 26]: 1.91 µM
GI50 [12, 27]: 1.92 µM
GI50 [12, 26]: 1.91 µM
GI50 [13, 27]: 13.7 µM
GI50 [13, 26]: 13.8 µM
GI50 [14, 27]: 2.06 µM
GI50 [14, 26]: 2.04 µM
GI50 [15, 27]: 1.72 µM
GI50 [15, 26]: 1.74 µM
GI50 [16, 27]: 1.23 µM
GI50 [16, 26]: 1.23 µM
GI50 ([17]; SN 12C, read-out: pGI50 (-log of molar concentration causing 50% inhibition of net cell growth) (converted)): 1.95 µM
GI50 [17, 27]: 1.95 µM
GI50 [18, 27]: 2.83 µM
GI50 [18, 26]: 2.82 µM
GI50 ([19]; U-251, 48 h exposure, SRB, read-out: GI50): 0.58 µM
GI50 ([19]; U-251, read-out: pGI50 (-log of molar concentration causing 50% inhibition of net cell growth) (converted)): 0.575 µM
GI50 [20, 27]: 2.31 µM
GI50 [20, 26]: 2.29 µM
GI50 [21, 27]: 1.55 µM
GI50 [21, 26]: 1.55 µM
GI50 [22, 27]: 2.33 µM
GI50 [22, 26]: 2.34 µM
GI50 [23, 27]: 3.55 µM
GI50 [23, 26]: 3.55 µM
GI50 [24, 27]: 4.07 µM
GI50 [24, 26]: 4.07 µM
GI50 [25, 27]: 2.21 µM
GI50 [25, 26]: 2.19 µM
